Reference: ChEMBL document CHEMBL4364276, “Discovery of 4-phenyl-2H-benzo[b][1,4]oxazin-3(4H)-one derivatives as potent and orally active PI3K/mTOR dual inhibitors” (Eur J Med Chem, 2019)

What was measured:
[1] = target: Fibroblast growth factor receptor 1 (Homo sapiens) (UniProt P11362); experiment: Inhibition of human FGFR1 at 100 nM using KKKSPGEYVNIEFG as substrate by [gamma-33P]-ATP assay
[2] = target: Ephrin type-B receptor 1 (Homo sapiens) (UniProt P54762); experiment: Inhibition of human EPHB1 at 100 nM using poly[Glu:Tyr] (4:1) as substrate by [gamma-33P]-ATP assay
[3] = Toxicity in BALB/c mouse xenografted with human HeLa cells assessed as reduction in body weight at 20 to 50 mg/kg, ig administered for 30 days; type: organism-based; settings: in vivo, po, 720 h
[4] = target: NUAK family SNF1-like kinase 2 (Homo sapiens) (UniProt Q9H093); experiment: Inhibition of human SNARK at 100 nM using KKKVSRSGLYRSPSMPENLNRPR as substrate by [gamma-33P]-ATP assay
[5] = target: Serine/threonine-protein kinase Nek6 (Homo sapiens) (UniProt Q9HC98); experiment: Inhibition of human NEK6 at 100 nM using casein as substrate by [gamma-33P]-ATP assay
Serine/threonine-protein kinase Nek6 (Homo sapiens), sequence (Q9HC98 whole entry): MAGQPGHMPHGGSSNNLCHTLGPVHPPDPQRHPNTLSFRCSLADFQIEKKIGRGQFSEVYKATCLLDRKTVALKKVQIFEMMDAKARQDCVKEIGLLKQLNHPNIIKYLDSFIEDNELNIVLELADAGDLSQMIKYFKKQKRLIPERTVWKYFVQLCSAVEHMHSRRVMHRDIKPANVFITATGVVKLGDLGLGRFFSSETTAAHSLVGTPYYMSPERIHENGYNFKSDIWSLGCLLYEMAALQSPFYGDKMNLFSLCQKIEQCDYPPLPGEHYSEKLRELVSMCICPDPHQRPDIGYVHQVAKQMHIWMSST

[6] = target: Inhibitor of nuclear factor kappa-B kinase subunit alpha (Homo sapiens) (UniProt O15111); experiment: Inhibition of human IKKalpha at 100 nM using KKKKERLLDDRHDSGLDSMKDEE as substrate by [gamma-33P]-ATP assay
[7] = target: Tyrosine-protein kinase BTK (Homo sapiens) (UniProt Q06187); experiment: Inhibition of human BTK at 100 nM using KVEKIGEGTYGVVYK as substrate by [gamma-33P]-ATP assay
[8] = target: Serine/threonine-protein kinase SIK2 (Homo sapiens) (UniProt Q9H0K1); experiment: Inhibition of human SIK2 at 100 nM using AMARAASAAALARRR as substrate by [gamma-33P]-ATP assay
[9] = target: Mitogen-activated protein kinase kinase kinase 7 (Homo sapiens) (UniProt O43318); experiment: Inhibition of human TAK1 at 100 nM using casein as substrate by [gamma-33P]-ATP assay
[10] = Inhibition of PI3K/Akt/mTOR signaling in human HeLa cells assessed as reduction in AKT 473 phosphorylation incubated for 24 hrs by Western blot analysis; type: cell-based
[11] = target: Serine/threonine-protein kinase MARK2 (Homo sapiens) (UniProt Q7KZI7); experiment: Inhibition of human MARK2 isoform 4 at 100 nM using KKKVSRSGLYRSPSMPENLNRPR as substrate by [gamma-33P]-ATP assay
[12] = target: Mitogen-activated protein kinase 10 (Homo sapiens) (UniProt P53779); experiment: Inhibition of human JNK3 at 100 nM using ATF2 as substrate by [gamma-33P]-ATP assay
A549 = experiment: Antitumor activity against human A549 cells xenografted in BALB/c nude mouse assessed as tumor growth inhibition at 20 mg/kg, ig administered for 30 days measured every 3 days during compound dosing relative to control; type: functional; settings: A549, po, read-out: TGI
[13] = target: Serine/threonine-protein kinase Sgk3 (Homo sapiens) (UniProt Q96BR1); experiment: Inhibition of human SGK3 at 100 nM using GRPRTSSFAEG as substrate by [gamma-33P]-ATP assay
[14] = target: Receptor-interacting serine/threonine-protein kinase 4 (Homo sapiens) (UniProt P57078); experiment: Inhibition of human RIPK4 at 100 nM using histone H2A as substrate by [gamma-33P]-ATP assay
Receptor-interacting serine/threonine-protein kinase 4 (Homo sapiens), sequence (P57078 whole entry): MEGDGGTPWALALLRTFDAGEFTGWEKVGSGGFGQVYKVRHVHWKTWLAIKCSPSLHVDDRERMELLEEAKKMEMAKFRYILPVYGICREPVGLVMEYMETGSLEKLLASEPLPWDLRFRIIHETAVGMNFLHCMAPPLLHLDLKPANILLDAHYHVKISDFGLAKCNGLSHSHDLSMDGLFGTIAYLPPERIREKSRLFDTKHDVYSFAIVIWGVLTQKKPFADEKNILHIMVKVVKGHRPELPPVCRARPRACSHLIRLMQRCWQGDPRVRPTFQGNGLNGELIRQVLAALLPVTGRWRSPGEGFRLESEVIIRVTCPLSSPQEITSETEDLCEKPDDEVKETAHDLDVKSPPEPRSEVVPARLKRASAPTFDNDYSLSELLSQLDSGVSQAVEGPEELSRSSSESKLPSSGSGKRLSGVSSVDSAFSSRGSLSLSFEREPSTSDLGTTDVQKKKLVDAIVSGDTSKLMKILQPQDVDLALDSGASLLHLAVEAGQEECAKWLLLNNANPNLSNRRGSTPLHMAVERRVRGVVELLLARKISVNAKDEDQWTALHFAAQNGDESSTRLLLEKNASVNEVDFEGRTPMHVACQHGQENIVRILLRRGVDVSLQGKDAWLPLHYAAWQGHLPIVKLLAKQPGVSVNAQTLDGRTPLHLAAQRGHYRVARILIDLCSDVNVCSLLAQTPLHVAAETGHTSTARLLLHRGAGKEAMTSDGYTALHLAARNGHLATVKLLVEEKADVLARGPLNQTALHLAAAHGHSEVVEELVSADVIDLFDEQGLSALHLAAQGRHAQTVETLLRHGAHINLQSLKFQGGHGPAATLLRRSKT

[15] = target: [Pyruvate dehydrogenase (acetyl-transferring)] kinase isozyme 4, mitochondrial (Homo sapiens) (UniProt Q16654); experiment: Inhibition of human PDK4 at 100 nM using MBP as substrate by [gamma-33P]-ATP assay
[16] = target: Serine/threonine-protein kinase pim-2 (Homo sapiens) (UniProt Q9P1W9); experiment: Inhibition of human PIM2 at 100 nM using RSRHSSYPAGT as substrate by [gamma-33P]-ATP assay
Serine/threonine-protein kinase pim-2 (Homo sapiens), sequence (Q9P1W9 whole entry, looked up): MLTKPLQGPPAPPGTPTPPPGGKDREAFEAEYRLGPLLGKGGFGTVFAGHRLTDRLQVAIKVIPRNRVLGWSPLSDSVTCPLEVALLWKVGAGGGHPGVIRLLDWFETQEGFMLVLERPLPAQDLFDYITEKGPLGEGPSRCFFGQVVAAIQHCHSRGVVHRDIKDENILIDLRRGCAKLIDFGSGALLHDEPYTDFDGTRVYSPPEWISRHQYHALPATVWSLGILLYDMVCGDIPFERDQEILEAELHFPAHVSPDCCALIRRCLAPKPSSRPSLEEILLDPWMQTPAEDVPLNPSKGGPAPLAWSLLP

[17] = target: Ephrin type-B receptor 3 (Homo sapiens) (UniProt P54753); experiment: Inhibition of human EPHB3 at 100 nM using poly[Glu:Tyr] (4:1) as substrate by [gamma-33P]-ATP assay
[18] = target: Serine/threonine-protein kinase pim-3 (Homo sapiens) (UniProt Q86V86); experiment: Inhibition of human PIM3 at 100 nM using RSRHSSYPAGT as substrate by [gamma-33P]-ATP assay
[19] = target: Protein kinase C beta type (Homo sapiens) (UniProt P05771); experiment: Inhibition of human PKCb2 at 100 nM using Histone H1 as substrate by [gamma-33P]-ATP assay
Protein kinase C beta type (Homo sapiens), sequence (P05771 2-671 limits assumed): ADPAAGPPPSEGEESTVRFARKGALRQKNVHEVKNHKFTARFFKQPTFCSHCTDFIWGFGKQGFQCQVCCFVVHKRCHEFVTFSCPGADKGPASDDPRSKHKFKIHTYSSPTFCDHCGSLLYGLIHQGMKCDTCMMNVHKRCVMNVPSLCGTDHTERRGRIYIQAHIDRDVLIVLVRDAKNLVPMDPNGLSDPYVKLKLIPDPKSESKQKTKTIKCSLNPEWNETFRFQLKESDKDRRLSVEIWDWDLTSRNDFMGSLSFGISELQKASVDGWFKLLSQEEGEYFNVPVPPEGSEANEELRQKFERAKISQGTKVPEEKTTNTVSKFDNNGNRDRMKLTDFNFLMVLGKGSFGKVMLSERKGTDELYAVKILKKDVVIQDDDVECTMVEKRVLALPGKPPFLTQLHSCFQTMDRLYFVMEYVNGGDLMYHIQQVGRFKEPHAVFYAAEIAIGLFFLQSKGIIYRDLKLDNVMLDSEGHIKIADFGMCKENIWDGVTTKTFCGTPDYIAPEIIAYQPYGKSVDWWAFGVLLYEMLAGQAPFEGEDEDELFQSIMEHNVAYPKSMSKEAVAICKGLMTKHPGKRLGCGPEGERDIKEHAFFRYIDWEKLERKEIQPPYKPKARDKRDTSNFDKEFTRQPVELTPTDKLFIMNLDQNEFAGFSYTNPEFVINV

[20] = target: Serine/threonine-protein kinase D3 (Homo sapiens) (UniProt O94806); experiment: Inhibition of human PKCnu at 100 nM using KKLNRTLSVA as substrate by [gamma-33P]-ATP assay
Serine/threonine-protein kinase D3 (Homo sapiens), sequence (O94806 whole entry): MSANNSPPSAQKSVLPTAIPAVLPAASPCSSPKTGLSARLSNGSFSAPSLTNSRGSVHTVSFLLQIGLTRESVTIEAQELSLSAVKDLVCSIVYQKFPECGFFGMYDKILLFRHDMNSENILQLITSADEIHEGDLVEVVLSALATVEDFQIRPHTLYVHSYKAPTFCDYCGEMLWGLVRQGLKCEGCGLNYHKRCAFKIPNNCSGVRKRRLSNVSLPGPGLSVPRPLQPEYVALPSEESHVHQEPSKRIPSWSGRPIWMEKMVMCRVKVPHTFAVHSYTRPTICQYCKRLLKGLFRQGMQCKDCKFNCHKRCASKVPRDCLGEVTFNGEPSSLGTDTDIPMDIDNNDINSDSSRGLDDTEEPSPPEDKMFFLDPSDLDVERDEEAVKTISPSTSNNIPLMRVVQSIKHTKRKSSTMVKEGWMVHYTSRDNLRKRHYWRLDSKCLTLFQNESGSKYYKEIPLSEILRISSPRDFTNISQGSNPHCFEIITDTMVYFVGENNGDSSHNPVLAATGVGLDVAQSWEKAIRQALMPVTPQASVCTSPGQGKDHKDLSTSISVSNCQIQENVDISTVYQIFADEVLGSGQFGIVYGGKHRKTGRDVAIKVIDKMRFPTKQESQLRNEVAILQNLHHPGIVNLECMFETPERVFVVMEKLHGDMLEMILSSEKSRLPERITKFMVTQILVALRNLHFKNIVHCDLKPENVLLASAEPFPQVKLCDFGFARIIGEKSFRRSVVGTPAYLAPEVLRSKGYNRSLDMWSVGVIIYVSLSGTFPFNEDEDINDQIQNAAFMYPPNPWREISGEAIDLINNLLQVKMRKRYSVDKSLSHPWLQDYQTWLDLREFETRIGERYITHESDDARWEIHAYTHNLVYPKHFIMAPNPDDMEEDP

[21] = target: MAP kinase-activated protein kinase 5 (Homo sapiens) (UniProt Q8IW41); experiment: Inhibition of human MAPKAPK5 at 100 nM using KKLNRTLSVA as substrate by [gamma-33P]-ATP assay
[22] = target: Mitogen-activated protein kinase kinase kinase kinase 5 (Homo sapiens) (UniProt Q9Y4K4); experiment: Inhibition of human KHS at 100 nM using MBP as substrate by [gamma-33P]-ATP assay
[23] = target: CDK1/Cyclin A (Homo sapiens) (UniProt P06493+P20248); experiment: Inhibition of human CDK1/Cyclin-A at 100 nM using Histone H1 as substrate by [gamma-33P]-ATP assay; type: protein-complex assay
[24] = target: Casein kinase I isoform gamma-2 (Homo sapiens) (UniProt P78368); experiment: Inhibition of human CK1gamma2 at 100 nM using KRRRAL[pS]VASLPGL as substrate by [gamma-33P]-ATP assay
[25] = target: Mitogen-activated protein kinase kinase kinase 5 (Homo sapiens) (UniProt Q99683); experiment: Inhibition of human ASK1 at 100 nM using MBP as substrate by [gamma-33P]-ATP assay
[26] = target: Serine/threonine-protein kinase Sgk1 (Homo sapiens) (UniProt O00141); experiment: Inhibition of human SGK1 at 100 nM using KGSGSGRPRTSSFAEG as substrate by [gamma-33P]-ATP assay
Serine/threonine-protein kinase Sgk1 (Homo sapiens), sequence (O00141 whole entry): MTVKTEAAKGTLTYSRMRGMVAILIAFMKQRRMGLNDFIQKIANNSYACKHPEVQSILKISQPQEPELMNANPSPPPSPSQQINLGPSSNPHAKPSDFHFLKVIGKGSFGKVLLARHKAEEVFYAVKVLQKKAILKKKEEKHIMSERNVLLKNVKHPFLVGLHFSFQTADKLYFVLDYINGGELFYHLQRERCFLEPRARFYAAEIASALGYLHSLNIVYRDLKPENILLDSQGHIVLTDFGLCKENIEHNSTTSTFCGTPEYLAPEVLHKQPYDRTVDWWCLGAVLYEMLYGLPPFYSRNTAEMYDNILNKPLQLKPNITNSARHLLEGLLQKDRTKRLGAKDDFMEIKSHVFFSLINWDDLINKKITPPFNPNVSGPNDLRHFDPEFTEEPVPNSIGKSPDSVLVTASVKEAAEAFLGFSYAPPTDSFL

Homo sapiens = organism: Homo sapiens; experiment: Inhibition of human AMPK (A1/B1/G2) at 100 nM using HMRSAMSGLHLVKRR as substrate by [gamma-33P]-ATP assay
[27] = target: Ribosomal protein S6 kinase beta-2 (Homo sapiens) (UniProt Q9UBS0); experiment: Inhibition of human p70S6Kb at 100 nM using KKRNRTLTK as substrate by [gamma-33P]-ATP assay
[28] = target: Serine/threonine-protein kinase DCLK2 (Homo sapiens) (UniProt Q8N568); experiment: Inhibition of human DCAMKL2 at 100 nM using KKLNRTLSFAEPG as substrate by [gamma-33P]-ATP assay
Serine/threonine-protein kinase DCLK2 (Homo sapiens), sequence (Q8N568 whole entry): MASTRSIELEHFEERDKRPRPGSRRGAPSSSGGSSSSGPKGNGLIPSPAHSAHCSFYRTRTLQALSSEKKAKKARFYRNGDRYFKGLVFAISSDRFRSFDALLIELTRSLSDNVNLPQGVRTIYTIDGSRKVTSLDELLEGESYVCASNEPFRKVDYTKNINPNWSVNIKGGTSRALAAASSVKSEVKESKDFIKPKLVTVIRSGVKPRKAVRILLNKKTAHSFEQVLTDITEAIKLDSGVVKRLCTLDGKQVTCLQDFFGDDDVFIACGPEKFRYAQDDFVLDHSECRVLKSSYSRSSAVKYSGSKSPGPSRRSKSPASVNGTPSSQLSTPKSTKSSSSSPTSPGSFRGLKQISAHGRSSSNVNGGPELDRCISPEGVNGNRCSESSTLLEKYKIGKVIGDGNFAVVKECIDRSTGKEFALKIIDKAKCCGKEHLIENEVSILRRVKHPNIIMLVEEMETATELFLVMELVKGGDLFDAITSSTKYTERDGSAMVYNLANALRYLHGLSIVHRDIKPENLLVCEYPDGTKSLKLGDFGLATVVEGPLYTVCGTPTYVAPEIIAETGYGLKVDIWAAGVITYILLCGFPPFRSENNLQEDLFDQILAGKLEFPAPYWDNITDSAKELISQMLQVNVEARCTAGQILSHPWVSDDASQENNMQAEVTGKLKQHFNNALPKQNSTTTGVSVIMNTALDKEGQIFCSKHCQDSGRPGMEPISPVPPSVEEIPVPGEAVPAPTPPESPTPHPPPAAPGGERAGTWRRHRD

[29] = target: Mitogen-activated protein kinase 13 (Homo sapiens) (UniProt O15264); experiment: Inhibition of human p38delta at 100 nM using MBP as substrate by [gamma-33P]-ATP assay

Fibroblast growth factor receptor 1 (Homo sapiens), sequence (P11362 22-822 limits assumed): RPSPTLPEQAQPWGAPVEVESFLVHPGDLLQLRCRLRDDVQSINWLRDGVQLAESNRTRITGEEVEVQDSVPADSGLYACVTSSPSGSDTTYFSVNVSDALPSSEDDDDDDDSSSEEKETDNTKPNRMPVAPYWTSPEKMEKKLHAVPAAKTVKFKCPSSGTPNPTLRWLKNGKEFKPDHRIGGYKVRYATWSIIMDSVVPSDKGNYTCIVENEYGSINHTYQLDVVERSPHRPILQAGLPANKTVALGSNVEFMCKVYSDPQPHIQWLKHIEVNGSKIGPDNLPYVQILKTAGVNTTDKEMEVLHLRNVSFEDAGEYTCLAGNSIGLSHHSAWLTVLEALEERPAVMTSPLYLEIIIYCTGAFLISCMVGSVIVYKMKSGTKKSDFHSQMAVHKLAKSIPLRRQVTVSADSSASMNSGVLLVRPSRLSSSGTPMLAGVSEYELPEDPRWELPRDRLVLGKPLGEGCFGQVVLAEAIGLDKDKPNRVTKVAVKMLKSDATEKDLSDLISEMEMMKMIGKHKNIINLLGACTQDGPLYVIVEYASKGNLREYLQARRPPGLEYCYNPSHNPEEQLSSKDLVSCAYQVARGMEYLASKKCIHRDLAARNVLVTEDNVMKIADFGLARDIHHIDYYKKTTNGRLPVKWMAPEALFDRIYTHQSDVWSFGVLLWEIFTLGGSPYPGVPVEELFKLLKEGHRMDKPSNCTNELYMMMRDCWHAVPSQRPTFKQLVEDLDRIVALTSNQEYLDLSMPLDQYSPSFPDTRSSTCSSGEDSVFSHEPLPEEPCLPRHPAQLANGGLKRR

**Q.** Which results are given for `COc1ccc(N2C(=O)COc3ccc(-c4cnc(OC)c(NS(=O)(=O)c5ccc(F)cc5)c4)cc32)cc1`?
**A.** inhibition [1]: -9.98%; inhibition [2]: 8.67%; Activity [3]: Non-Toxic; inhibition [4]: 4.8%; inhibition [5]: -2.82%; inhibition [6]: -2.43%; inhibition [7]: 14.8%; inhibition [8]: -3.42%; inhibition [9]: 12.5%; inhibition [10]: Dose-dependent effect; inhibition [11]: 1.93%; inhibition [12]: -6.25%; inhibition in vivo at 20 mg/kg (A549): 57.8%; inhibition [13]: 3.8%; inhibition [14]: 1.41%; inhibition [15]: -4.54%; inhibition [16]: 0.23%; inhibition [17]: -1.65%; inhibition [18]: -9.8%; inhibition [19]: -6.74%; inhibition [20]: 2.41%; inhibition [21]: 5.14%; inhibition [22]: -9.84%; inhibition [23]: 16%; inhibition [24]: 1.74%; inhibition [25]: -8.49%; inhibition [26]: -1.5%; inhibition (Homo sapiens): -8.22%; inhibition [27]: 22.3%; inhibition [28]: 2.1%; inhibition [29]: 13.9%
